Reference: US5349127A, “Expression of herbicide metabolizing cytochromes P450” (priority 1992, dated 1994)

Tests used:
[1] = Incubation buffer without cells, time 0 (Examples 5-9, 11, 12); type: in vitro ADME; conditions: no cells, 0 h
Procedure: (§1) A 100 ml culture of S. griseolus ATCC 11796 in sporulation broth and a 50 ml culture of S. lividans transformed with pCAO400 in YEME broth were prepared and incubated for 24 hours as described. At that time, the S. griseolus culture was split into two 50 ml aliquots into two separate flasks and 25 ml of fresh sporulation broth was added to each and 9 mg of […] was added to one of these cultures to induce cytochrome P450SU1 expression. Fresh YEME broth (25 ml) was added to the S. lividans culture. After an additional 6 hours growth at 30° C., the cells in each culture were harvested as described above, washed twice with MOPS (50 mM, pH 7.2) and recentrifuged. The cell pellets were resuspended in four cell volumes of MOPS (50 mM, pH 7.2) containing 0.2% glucose and about 100 μg/ml of 10004. These cell suspensions were incubated at 30° C. with shaking and aliqouts were taken at 2 and 5.5 hours. The supernatant of each aliquot was analyzed by HPLC and the concentrations of the sulfonylurea compound 10004 and its metabolite 10005 were determined.
(§2) S. lividans transformed respectively with pCAO200SU1-FeS-B#9, pCAO200SU#112and pCAO200 were cultured for 36 hours in 400 ml of YEME broth at 30° C. S. griseolus ATCC 11796 was similarly cultured in 400 ml of sporulation broth. Six hours before harvesting the cells, 150 ml of fresh YEME broth was added to the S. lividans cells, and the S. griseolus cells were split into two 200 ml cultures with 100 ml of fresh sporulation broth added to each. 10001 (36 mg) was added to one of the two S. griseolus cultures to induce cytochrome P450SU1. The cells were prepared as described above in Example 5 and the concentrations of the sulfonylurea compound 10006 and its metabolites 10007, 10008 or 10009 were determined.
(§3) S. lividans transformed with pCAO200SU2-FeS-A#11 and S. lividans transformed with pCAO200 were cultured for 36 hours in 400 ml of YEME broth at 30° C. S. griseolus PH2001 (mutant without SU1) was cultured in 400 ml of sporulation broth at 30° C. Nine hours before harvesting the cells, the S. griseolus PH2001 culture was divided into two 200 ml cultures. Both received 100 ml of fresh sporulation broth and one received 36 mg of 10001 to induce cytochrome P450SU2. The cells were prepared as described above in Example 6 and the concentrations of the sulfonylurea compound 10001 and its metabolites 10002 and 10003 were determined.

[2] = system: S. griseolus ATCC 11796 uninduced; test: Sulfonylurea metabolism by washed cell suspension (Examples 5-9); type: in vitro ADME, Streptomyces griseolus
Procedure: Herbicides and their metabolites are measured by HPLC as described by Romesser et al., BBRC 140: 650-659 (1986), herein incorporated by reference, except that 0.1% H3 PO4 is used in both solvents. Chromatographic identity and quantitation of the herbicides and their resulting metabolites is determined by comparing them chromatographically with authentic standard compounds. Identity of the resulting metabolites is also confirmed by UV spectroscopy.
as §1, §2

[3] = system: S. lividans pCAO200SU1-FeS-B#9; test: Sulfonylurea metabolism by washed cell suspension (Examples 6-9); type: in vitro ADME, Streptomyces lividans
[4] = system: S. griseolus PH2001 induced with 10001; test: Sulfonylurea metabolism by washed cell suspension (Examples 11-12); type: in vitro ADME, Streptomyces griseolus
Procedure: as §1, §2, §3

[5] = system: S. griseolus PH2001 uninduced; test: as above; type: in vitro ADME, Streptomyces griseolus
Procedure: as §1, §2, §3

[6] = system: S. lividans pCAO200SU2-FeS-A#11; test: as above; type: in vitro ADME, Streptomyces lividans; conditions: substrate 10001
Procedure: as §3

[7] = system: S. lividans PH3816; test: Metabolism of 10001 by strains transformed with pCS325 (Example 15); type: in vitro ADME, Streptomyces lividans; conditions: substrate 10001
Procedure: S. griseolus PH2003, S. griseus PH4001, S. ambofaciens PH4002, and S. lividans JI1326 were transformed with the plasmid pPAT108. The transformed S. griseolus strain, PH3826, was cultured for 24 hours in 150 mls of sporulation broth with 5 ug/ml thiostrepton. The transformed S. griseus strain, PH3832, and the transformed S. ambofaciens strain, PH3834, were cultured for 24 hours in 150 mls of trypticase soy broth with 5 ug/ml thiostrepton. The transformed S. lividans strain, PH3822, was similarly cultured in 150 mls of YEME broth with 5 ug/ml thiostrepton. Three hours before harvesting the cells, 50 mls of fresh medium of the same type with 5 ug/ml thiostrepton was added to each culture. The cells from each of the cultures were harvested by centrifugation, washed twice with 50 mMMOPS, pH7.2 and resuspended in five cell volumes of MOPS containing 0.2% glucose and 120 ug/ml of the sulfonylurea 10001. The cell suspensions were incubated at 30° C. with shaking and aliquots were removed at 0.5, 1, 2 and 4 hours. The supernatant of each aliquot was analyzed by HPLC and the concentration of the sulfonylurea compound 10001 and its metabolites 10002 and 10003 were determined.
S. griseolus PH2003, S. griseus PH4001, S. ambofaciens PH4002, and S. lividans JI1326 were transformed with the plasmid pCS325. Cells of the transformed strains of S. griseolus PH3809, S. griseus PH3817, S. ambofaciens PH3818, and S. lividans PH3816, were grown and treated as described in Example 14, and the concentrations of the sulfonylurea compound 10001 and its metabolites 10002 and 10003 were determined.

Row | Compound | concentration in supernatant ([1]; Example 8, substrate 10001) | concentration in supernatant ([1]; Example 11, substrate 10001) | concentration in supernatant ([2]; substrate 10001, 2 h) | concentration in supernatant ([2]; substrate 10001, 4 h) | concentration in supernatant ([2]; substrate 10001, 6 h) | concentration in supernatant ([3]; substrate 10001, 2 h) | concentration in supernatant ([3]; substrate 10001, 4 h) | concentration in supernatant ([3]; substrate 10001, 6 h) | concentration in supernatant ([4]; substrate 10001, 2 h) | concentration in supernatant ([4]; substrate 10001, 4 h) | concentration in supernatant ([4]; substrate 10001, 6 h) | concentration in supernatant ([5]; substrate 10001, 2 h) | concentration in supernatant ([5]; substrate 10001, 4 h) | concentration in supernatant ([6]; 2 h) | concentration in supernatant ([6]; 4 h) | concentration in supernatant ([6]; 6 h) | concentration in supernatant ([7]; 0.5 h) | concentration in supernatant ([7]; 1.0 h) | concentration in supernatant ([7]; 2.0 h) | concentration in supernatant ([7]; 4.0 h) | further results
1 | COC(=O)c1ccccc1S(=O)(=O)NC(=O)Nc1nc(C)cc(C)n1 [compound 10010, N-[(4,6-dimethylpyrimidin-2-yl)aminocarbonyl]-2-methoxycarbonylbenzenesulfonamide] | – | – | – | – | – | – | – | – | – | – | – | – | – | – | – | – | – | – | – | – | concentration in supernatant ([1]; Example 7, substrate 10010): 87 µM; concentration in supernatant ([1]; Example 12, substrate 10010): 88 µM; concentration in supernatant ([2]; substrate 10010, 2 h): 70 µM; concentration in supernatant ([2]; substrate 10010, 4 h): 49 µM; concentration in supernatant ([2]; substrate 10010, 6 h): 37 µM; concentration in supernatant ([3]; substrate 10010, 2 h): 35 µM; concentration in supernatant ([3]; substrate 10010, 4 h): 11 µM; concentration in supernatant ([3]; substrate 10010, 6 h): 4 µM; concentration in supernatant ([4]; substrate 10010, 2 h): 64 µM; concentration in supernatant ([4]; substrate 10010, 4 h): 56 µM; concentration in supernatant ([4]; substrate 10010, 6 h): 50 µM; concentration in supernatant ([5]; substrate 10010, 2 h): 89 µM; concentration in supernatant ([5]; substrate 10010, 4 h): 88 µM; concentration in supernatant ([5]; substrate 10010, 6 h): 89 µM
2 | COc1cc(Cl)nc(NC(=O)NS(=O)(=O)c2ccccc2C(=O)O)n1 [compound 10003, N-[(4-chloro-6-methoxy-pyrimidin-2-yol)aminocarbonyl]-2-carboxybenzenesulfonamide] | 0 µM | 0 µM | 14 µM | 37 µM | 62 µM | 86 µM | 95 µM | 94 µM | 7 µM | 10 µM | 13 µM | 1 µM | 2 µM | 1 µM | 2 µM | 3 µM | 1 µM | 3 µM | 7 µM | 11 µM | concentration in supernatant ([5]; substrate 10001, 6 h): 3 µM
3 | CCOC(=O)c1ccccc1S(=O)(=O)NC(=O)Nc1nc(O)cc(Cl)n1 [compound 10002, N-[(4-chloro-6-hydroxy-pyrimidin-2-yl)aminocarbonyl]-2-ethoxycarbonylbenzenesulfonamide] | – | – | – | – | – | 105 µM | 116 µM | 112 µM | – | – | – | – | – | 7 µM | 12 µM | 15 µM | 19 µM | 36 µM | 68 µM | 103 µM | –
4 | CCOC(=O)c1ccccc1S(=O)(=O)NC(=O)Nc1nc(Cl)cc(OC)n1 [compound 10001, N-[(4-chloro-6-methoxy-pyrimidin-2-yl)aminocarbonyl]-2-ethoxycarbonylbenzenesulfonamide] | 291 µM | 279 µM | 244 µM | 167 µM | 86 µM | 28 µM | 0 µM | 0 µM | 286 µM | 256 µM | 234 µM | 271 µM | 264 µM | 279 µM | 273 µM | 251 µM | 331 µM | 339 µM | 299 µM | 248 µM | concentration in supernatant ([5]; substrate 10001, 6 h): 244 µM
